US20220125877A1, “METHOD FOR TREATING COLORECTAL CANCER” (SUN YAT-SEN UNIVERSITY, priority 2019, published 2022)

Legend:
[1] = system: KRAS wildtype colorectal cancer cells; assay: Cell viability, metformin with a gradient concentration; assay type: cell-based, human; conditions: FIG. 6
Description: (§1) The cells were inoculated on a plate according to the concentration of 5000 cells/well (48-well plate, 200 μl per well). The cells were treated with different ways according to the experimental requirements, and 10 μl CCK8 solution was added after a period of time. The cells were incubated for 1 h in an incubator; 200 μl supernatant were absorbed into a 96-well ELISA plate to determine OD450 with a microplate reader.
(§2) (2) Metformin with a gradient concentration was used in vitro to treat KRAS wildtype colorectal cancer cell lines SW48 and CaCO2, KRAS G13D-mutation colorectal cancer cell lines HCT-116 and LoVo, as well as KRAS G12V-mutation colorectal cancer cell lines SW480 and SW620. In addition, the metformin with a gradient concentration was used to treat the KRAS wildtype colorectal cancer cell line SW48 transfected with KRAS G12V, KRAS G13D and KRAS G12D plasmids.

[2] = system: KRAS wildtype CRC cells SW48; assay: Cell viability (CCK-8 method); assay type: cell-based; conditions: Homo sapiens, CCK8, FIG. 10
Description: as §1, §2
(§3) 5 μM and 10 μM lansoprazole were used to treat HCT-116 and LoVo simultaneously; metformin was used to treat the cells at the same time for 48 h; the cell viability was detected by CCK8.

[3] = system: KRAS wildtype CRC cells CaCO2; assay: Cell viability (CCK-8 method); assay type: cell-based; conditions: Homo sapiens, Caco-2; CCK8, FIG. 10
Description: as §1, §2, §3

[4] = system: LoVo cell line with knock-down KRAS protein; assay: Cell cycle in KRAS knock-down cells; assay type: cell-based, human; conditions: relative to LoVo, FIG. 8D
Description: 1) KRAS interference lentivirus (sh-KRAS) was constructed and packaged by Shanghai Genechem Co., LTD.
2) LoVo cells were subcultured to a 6-well plate (about 1×10^5/well), when cells were subjected to adherence growth, and the degree of cell fusion was not greater than 50%, fresh culture solution was replaced ahead of 2 h, and 10 μg/mL lentivirus infection enhancer polybrene was added. Multiplicity of Infection (MOI) of LoVo was about 20; lentivirus was added according to the formula: adding amount of lentivirus per well (μl)=MOI×cell population/titer (TU/ml)×1000. The culture solution was replaced after 16-18 h, and 1 μM puromycin was conventionally added for screening the cell line whose RNA stable expression was interfered by KRAS.
1) The cells were inoculated onto a 6-well plate, and subjected to adherence growth for 12 h, then starvation treatment over the night, and treated with the addition of an agent for 24 h, then the cells were digested and washed for 3 times with PBS and centrifuged to discard supernatant; −20° C. pre-cooled 70% ethanol was added dropwise, and the cells were mixed well by vortex, and immobilized over the night at −20° C.
2) The cells were horizontally centrifuged for 10 min at 2000 rpm to discard the supernatant; then the cells were washed with PBS for 2-3 times to remove the residual ethanol with centrifugation for 5 min each time. […]

[5] = system: KRAS mutation CRC cells LoVo; assay: Proliferation detection (Edu method); assay type: cell-based, human; conditions: FIGS. 8A-B
Description: (§4) Edu was used to detect the ratio of proliferative cells, a plate clone formation experiment and PI/Rnase simple staining were used to detect the distribution of cell cycles, thus making the effect of metformin on the proliferation of CRC cells clear.
(§5) 1) Cell treatment by Edu: cells were cultured in a culture dish (covered with a sterilized cover glass), and subjected adherence growth for 12 h, and starvation treatment over the night, and treated with the addition of an agent for the corresponding time, and then added with EdU (final concentration: 10 μM) at the last 2-6 h (EdU treatment time was determined according to the cell growth rate).
(§6) 2) Immobilization: 4% paraformaldehyde was added according to 1 mL/well to immobilize the cells for 15 min at room temperature.
(§7) 3) Slide washing: 3% BSA (dissolved by PBS) was used according to 1 mL/well for washing for twice.
(§8) 4) Rupture of membrane: the cells were treated by 0.5% TritonX-100 according to 1 mL/well for 20 min at room temperature.
(§9) 5) Slide washing: the same as the step 3).
(§10) 6) Addition of a ClickiT reaction mixture: the reaction mixture was added per […] in the dark for 30 min at room temperature. […]
(§11) 11) The slide was observed under a full-automatic positive fluorescence microscope to analyze the result, and shoot and recorded (100×, 200×, 400×, the original image was kept).

[6] = system: KRAS wildtype CRC cells SW48; assay: Proliferation detection (Edu method); assay type: cell-based, human; conditions: FIGS. 8A-B
Description: as §4, §5, §6, §7, §8, §9, §10, §11

[7] = system: ERK, RB, MPK, AKT, mTOR and 4E-BP1 phosphorylation in LoVo; assay: Western blot of MEK/ERK/cyclin D1/RB and PI3K/AKT/mTOR/4E-BP1 signaling; assay type: cell-based, human; conditions: 24 h, FIGS. 9A-C
Description: (§12) Western blot was used to detect the change of metformin on the related molecules of sroliferative signaling pathways MEK/ERK/cyclin D1/RB and PI3K/AKT/mTOR/4E-BP1, which clarifies the mechanism of metformin in inhibiting the proliferation of KRAS mutation CRC cells.
(§13) 1) Cells were inoculated on a culture dish and cultured to 60% of fusion degree, and treated with the addition of an agent for 24 h.
(§14) 2) Protein was collected, and washed with PBS for 3 times, then added with 100 μl 1 RSDS buffer solution (100 mmol/1 Tris-Cl pH6.8, 2% SDS, 10% glycerinum), and at this time, the cell lysis solution was sticky.
(§15) 3) The cell lysis solution was collected into a 0.5 ml centrifugal tube with a scraper, and cooked for 30 min at 100° C.
(§16) 4) The total protein extractive in the cells was subjected to protein quantification according to a BCA kit process (BIO-RAD company).
(§17) 5) The sample was treated according to a ratio of 9 μl denatured protein sample: 1 μl denatured buffer solution (β-mercaptoethanol (BME), 0.4% Bromphenol Blue), and boiled for 30 min at 100° C. for further use.
(§18) 6) A prepared SDS-PAGE gel (10% separation gel and 5% stacking gel) was taken; samples were added with 40 ug/well, and subjected gel electrophoresis for 30 min at 80V, and gel electrophoresis for 90 min at 120V. […]

[8] = system: ERK, RB, MPK, AKT, mTOR and 4E-BP1 phosphorylation in SW48; assay: as above; assay type: cell-based, human; conditions: 24 h, FIGS. 9A-C
Description: as §12, §13, §14, §15, §16, §17, §18

CN(C)C(=N)N=C(N)N [metformin]
effect on cell viability [1]: has no effect
IC50 [2]: 90.8 mM
IC50 [3]: 88.1 mM
inhibiting effect on transformation from G1 phase to phase S after interference of KRAS (G13D) expression [4]: down-regulate the inhibiting effect
ratio of proliferating-phase cells (EdU positive) [5]: decreases
ratio of proliferating-phase cells (EdU positive) [6]: no obvious effect
phosphorylation levels in ERK, RB, MPK, AKT, mTOR and 4E-BP1 [7]: inhibited phosphorylation levels
phosphorylation levels in ERK, RB, MPK, AKT, mTOR and 4E-BP1 [8]: no obvious change
